Experimental data published in patent US10597409B2, “Water-soluble triazapyridinophane-based complexing agents and corresponding fluorescent lanthanide complexes” (CISBIO BIOASSAYS, priority 2015, dated 2020).

How the values were obtained:
[1] = Photophysical measurements of the lanthanide complexes (absorption, emission, brightness, lifetime); format: physicochemical
[2] = Solubility in H2O (biological and buffer media); format: physicochemical; settings: for Solubility in H2O: yes/no

Absorption λmax [1] | Solubility in water (biological and buffer media) [2] | Solubility in H2O [2] | Brightness ε × Φ (H2O) ([1]; in H2O) | Lifetime τH2O ([1]; in H2O) | SMILES
320 nm | insoluble in water | no |  |  | COC(=O)COc1ccc(C#Cc2cc3nc(c2)CN(CC(=O)O)Cc2cc(C#Cc4ccc(OCC(=O)OC)cc4)cc(n2)CN(CC(=O)O)Cc2cc(C#Cc4ccc(OCCCN)cc4)cc(n2)CN(CC(=O)O)C3)cc1 [Complex 62]
328 nm | insoluble in water | no |  |  | COC(=O)COc1cc(OC)c(-c2cc3nc(c2)CN(CC(=O)O)Cc2cc(-c4c(OC)cc(OCC(=O)OC)cc4OC)cc(n2)CN(CC(=O)O)Cc2cc(-c4ccc(OCCCN)cc4)cc(n2)CN(CC(=O)O)C3)c(OC)c1 [Complex 63]
267 nm | soluble in water | yes | 564 | 0.78 ms | O=C(O)CN1Cc2cccc(n2)CN(CC(=O)O)Cc2cccc(n2)CN(CC(=O)O)Cc2cccc(n2)C1 [Pyridinophane]
